Reference: patent publication US20180291402A1, “Linalool Composition and Method of Producing Therefor” (AJINOMOTO CO., INC., priority 2015, published 2018)

Assays:
[1] = general statement on two-phase culture; cited from earlier work
[2] = test system: SWITCH-PphoC Δgcd/pSTV28 strain; experiment: Linalool addition test (growth, O.D. value over time); assay type: cell-based, P. ananatis; conditions: reagent Linalool added at O.D. 0.6 to 0.7; tested at 1251, 837, 626 and 417 mg/L; M9 minimum medium, 34° C.; FIG. 58
Procedure: The glycerol stock of the SWITCH-PphoC Δgcd/pSTV28 strain obtained by transforming the SWITCH-PphoC Δgcd strain constructed in Example 2 with the commercially available plasmid vector pSTV28 (produced by Takara Bio Inc.) was thawed, and 50 μL of a microbial cell suspension was uniformly applied onto an LB plate containing 60 mg/L of chloramphenicol and cultured at 34° C. for 18 hours while left to stand (without agitation). […] Cultivation was carried out using a small-sized shaking culture apparatus TVS062CA (produced by Advantec Toyo Kaisha, Ltd.) for 23 hours, the shaking of 5.0 sec was stopped every 15 minutes, and the O.D. values were automatically measured.
The concentration of linalool in the culture medium was calculated from the specific gravity of the reagent Linalool (0.86 (20/4° C.)) (reference literature: actual values supplied from Wako Pure Chemical Industries, Ltd.).
The graph showing changes of the O.D. value over time measured using TVS062CA communication software (TV100070, produced by Advantec Toyo Kaisha, Ltd.) is illustrated in FIG. 58.

Structure (SMILES) | solubility with respect to water [1] | concentration of linalool added to the culture medium at which the O.D. value is decreased (microbial cell growth inhibition) [2]
C=C[C@](C)(O)CCC=C(C)C [R-linalool, (3R)-3,7-dimethylocta-1,6-diene-3-ol] | low solubility | 
C=C[C@@](C)(O)CCC=C(C)C [S-linalool, (3 S)-3,7-dimethylocta-1,6-diene-3-ol] | low solubility | 
C=CC(C)(O)CCC=C(C)C (stereo not drawn) [linalool, Linalool] |  | ≥ 626 µg/mL
